± gives the expanded uncertainty stated by the source.
Conditions: Liquid, Pulse-echo method

c1ccccc1 [benzene]
Conditions | speed of sound [m/s]
283.2 K, 102.1 kPa | 1372 ± 0.83
283.2 K, 5280.1 kPa | 1396 ± 0.84
283.2 K, 10234 kPa | 1418.2 ± 0.85
283.2 K, 15332 kPa | 1439.9 ± 0.86
283.2 K, 20204 kPa | 1460.2 ± 0.87
283.2 K, 24857 kPa | 1479 ± 0.88
283.21 K, 29815 kPa | 1498.1 ± 0.89
298.2 K, 84.2 kPa | 1299.7 ± 0.79
298.2 K, 5421.7 kPa | 1327 ± 0.81
298.2 K, 10069 kPa | 1349.5 ± 0.82
298.2 K, 14866 kPa | 1371 ± 0.83
298.2 K, 20104 kPa | 1394.3 ± 0.84
298.2 K, 25018 kPa | 1415.8 ± 0.85
298.2 K, 30106 kPa | 1436.9 ± 0.86
313.2 K, 61.2 kPa | 1230.4 ± 0.76
313.2 K, 5536.5 kPa | 1259.8 ± 0.77
313.2 K, 10140 kPa | 1283.5 ± 0.78
313.2 K, 15332 kPa | 1309 ± 0.8
313.2 K, 20194 kPa | 1332.2 ± 0.81
313.2 K, 25204 kPa | 1354.8 ± 0.82
313.2 K, 29980 kPa | 1375.7 ± 0.83
333.21 K, 153.7 kPa | 1139.7 ± 0.72
333.21 K, 5378.8 kPa | 1171.4 ± 0.73
333.21 K, 10149 kPa | 1198.3 ± 0.74
333.21 K, 15038 kPa | 1225 ± 0.76
333.21 K, 19601 kPa | 1248.5 ± 0.77
333.21 K, 24756 kPa | 1274 ± 0.78
333.21 K, 30146 kPa | 1299.2 ± 0.79
353.2 K, 15092 kPa | 1146.6 ± 0.72
353.2 K, 19918 kPa | 1173.2 ± 0.73
353.21 K, 172.3 kPa | 1052.2 ± 0.68
353.21 K, 5094.9 kPa | 1084.9 ± 0.69
353.21 K, 10007 kPa | 1116.2 ± 0.7
353.21 K, 24680 kPa | 1198.7 ± 0.74
353.21 K, 30063 kPa | 1226 ± 0.76

CCO [ethanol]
Conditions | speed of sound [m/s]
253.22 K, 104.2 kPa | 1304.8 ± 0.7
253.22 K, 130.2 kPa | 1305.1 ± 0.7
253.22 K, 5018.8 kPa | 1330.4 ± 0.71
253.22 K, 5283.4 kPa | 1331.5 ± 0.71
253.22 K, 10112 kPa | 1355.4 ± 0.72
253.22 K, 10246 kPa | 1355.8 ± 0.72
253.22 K, 15106 kPa | 1379.1 ± 0.73
253.22 K, 15229 kPa | 1379.4 ± 0.73
253.22 K, 19991 kPa | 1401.4 ± 0.74
253.22 K, 20403 kPa | 1402.9 ± 0.74
253.22 K, 24921 kPa | 1422.9 ± 0.75
253.22 K, 25022 kPa | 1423.6 ± 0.75
253.22 K, 30114 kPa | 1444.8 ± 0.76
253.23 K, 30052 kPa | 1444.5 ± 0.76
273.2 K, 99.9 kPa | 1230.8 ± 0.67
273.2 K, 5193.3 kPa | 1259.3 ± 0.69
273.2 K, 10100 kPa | 1285.4 ± 0.7
273.2 K, 15284 kPa | 1311.7 ± 0.7
273.2 K, 20253 kPa | 1336 ± 0.72
273.2 K, 25058 kPa | 1358.8 ± 0.72
273.2 K, 25221 kPa | 1359.3 ± 0.72
273.2 K, 30203 kPa | 1381.6 ± 0.73
273.21 K, 128.6 kPa | 1231.1 ± 0.67
273.21 K, 5026.6 kPa | 1258.5 ± 0.68
273.21 K, 10148 kPa | 1285.8 ± 0.7
273.21 K, 15029 kPa | 1310.8 ± 0.7
273.21 K, 20070 kPa | 1335.2 ± 0.71
273.21 K, 30338 kPa | 1382.2 ± 0.73
293.2 K, 103.7 kPa | 1160 ± 0.63
293.2 K, 5339.4 kPa | 1192 ± 0.65
293.2 K, 10368 kPa | 1220.8 ± 0.66
293.2 K, 15197 kPa | 1247.2 ± 0.68
293.2 K, 20222 kPa | 1273.4 ± 0.69
293.2 K, 25256 kPa | 1298.5 ± 0.7
293.2 K, 30069 kPa | 1321.4 ± 0.7
293.21 K, 140 kPa | 1160.4 ± 0.63
293.21 K, 5169 kPa | 1191 ± 0.65
293.21 K, 9977.3 kPa | 1218.7 ± 0.66
293.21 K, 15052 kPa | 1246.6 ± 0.67
293.21 K, 20101 kPa | 1272.9 ± 0.68
293.21 K, 25034 kPa | 1297.5 ± 0.69
293.21 K, 30268 kPa | 1322.5 ± 0.71
313.21 K, 103.8 kPa | 1091.9 ± 0.61
313.21 K, 121.8 kPa | 1092.3 ± 0.61
313.21 K, 5023.3 kPa | 1124.7 ± 0.62
313.21 K, 5318.6 kPa | 1126.5 ± 0.62
313.21 K, 10011 kPa | 1155.8 ± 0.63
313.21 K, 10351 kPa | 1157.8 ± 0.64
313.21 K, 14993 kPa | 1185.1 ± 0.64
313.21 K, 15238 kPa | 1186.6 ± 0.65
313.21 K, 20052 kPa | 1213.5 ± 0.66
313.21 K, 20317 kPa | 1214.8 ± 0.66
313.21 K, 25163 kPa | 1240.5 ± 0.67
313.21 K, 25383 kPa | 1241.6 ± 0.67
313.21 K, 30116 kPa | 1265.6 ± 0.68
313.21 K, 30384 kPa | 1266.8 ± 0.68
333.21 K, 104.1 kPa | 1024.9 ± 0.59
333.21 K, 137.3 kPa | 1025.2 ± 0.59
333.21 K, 5087.6 kPa | 1061.2 ± 0.6
333.21 K, 5212.7 kPa | 1062.1 ± 0.6
333.21 K, 10090 kPa | 1095 ± 0.61
333.21 K, 10228 kPa | 1095.9 ± 0.61
333.21 K, 15025 kPa | 1126.4 ± 0.62
333.21 K, 15294 kPa | 1127.9 ± 0.62
333.21 K, 19954 kPa | 1155.9 ± 0.63
333.21 K, 20181 kPa | 1157.1 ± 0.64
333.21 K, 24959 kPa | 1184.2 ± 0.64
333.21 K, 25377 kPa | 1186.4 ± 0.65
333.21 K, 30028 kPa | 1211.3 ± 0.66
333.21 K, 30214 kPa | 1212.3 ± 0.66
353.2 K, 103.5 kPa | 957.73 ± 0.55
353.21 K, 132.1 kPa | 957.59 ± 0.55
353.21 K, 5006 kPa | 996.76 ± 0.57
353.21 K, 5137.5 kPa | 997.75 ± 0.57
353.21 K, 10089 kPa | 1034.4 ± 0.58
353.21 K, 10319 kPa | 1035.9 ± 0.58
353.21 K, 15035 kPa | 1068.3 ± 0.6
353.21 K, 15211 kPa | 1069.4 ± 0.6
353.21 K, 20108 kPa | 1100.9 ± 0.61
353.21 K, 20273 kPa | 1101.7 ± 0.61
353.21 K, 25007 kPa | 1130.5 ± 0.62
353.21 K, 25250 kPa | 1131.8 ± 0.62
353.21 K, 30102 kPa | 1159.5 ± 0.63
353.21 K, 30289 kPa | 1160.5 ± 0.63

Reference: the NIST ThermoML archive (doi:10.1021/je501065g)
